Laboratory results from patent US20030226169A1, “DNA sequences encoding antifungal proteins” (priority 1995, published 2003).
Positions of bridges follow the written chain, without caps; N, C: chain ends. Residues, ends and D or L forms follow the SMILES beside them.

Assays:
[1] = Solubility of peptide in water; type: physicochemical; settings: dissolved at 2 mg/ml
Experimental: Peptides insoluble in water were dissolved in 50% acetonitrile: 50% acetonitrile was added to the peptide to give a stock solution which could be further diluted with water for fungal growth assays. Fungal growth was not affected by the presence of acetonitrile at the maximum concentration tested ([…] in the test well).
Split 15-mer peptides were dissolved in sterile milli-Q water to a final concentration of 5 mg/ml. MPS 15-mer peptides were dissolved to a final concentration between 4 and 10 mg/ml using acetonitrile as solvent for those peptides insoluble in water. Split 6-, 9- and 12-mer Rs-AFP 1 peptides were dissolved to a final concentration of 2 mg/ml in 20% acetonitrile. Split 6-, 9- and 12-mer Rs-AFP2 peptides were dissolved to a final concentration of 2 mg/ml in sterile water except for peptides numbers 1 (SEQ ID NO: 133) and 83 (SEQ ID NO: 35, amino acids 37-45) which were dissolved in 50% acetonitrile and numbers 3, 4, 5, 25, 47, 52, 64, 69, 70, 73, 74, 77, 85 and 93 which were dissolved in 20% acetonitrile. Both Rs-AFP1 and Rs-AFP2 peptides were freeze-dried just before weighing. […] The foregoing peptides have the following sequence identifications: […]

[2] = system: Fusarium culmorum (IMI 180420); test: Antifungal growth inhibition microplate assay (photospectrometry); type: cell-based; settings: for increase of MIC value: 15-mer peptides, 50 mM KCl versus ½ PDB alone
Summary of the method: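 Spores (2×10^4/ml) in half-strength potato dextrose broth exposed to test solution, incubated in the dark at room temperature for about 72 h (96 h for V. dahliae). Growth by OD595 minus 30-min reading; IC50 is 50% and MIC 100% growth inhibition.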

F culmorum = test: Antifungal activity of combinations of Rs-AFP and 15-mer peptides; type: cell-based, Fusarium culmorum; settings: 100 x MIC of Rs-AFP2 / MIC of Rs-AFP2/peptide combination; 15-mer peptide added at 20 μg/ml; SMF medium; BSA-coated plates; Rs-AFP2 alone = 100
Experimental: The 15-mer peptides were tested for their ability to affect the antifungal activity of the Rs-AFP2 protein (SEQ ID NO: 35). Each peptide was added at a subinhibitory concentration (20 μg/ml ) to a twofold dilution series of Rs-AFP2 (SEQ ID NO: 35) ranging from 20 μg/ml down to 0.15 μg/ml. In the control series only water was added.
The target fungus was F culmorum and the growth medium was SMF. In order to exclude the effect of differential binding of the peptides to the microplate wells, the plates were coated with bovine serum albumin. […] The relative specific activity is defined as one hundred times the MIC of Rs-AFP2 divided by the MIC of the Rs-AFP2/peptide combination. Data are based on duplicate tests.

| Compound | Relative Specific Antifungal Activity (F culmorum) | increase of MIC value [2] | further results |
| --- | --- | --- | --- |
| CC(=O)N[C@H]1CSSC[C@@H](C(N)=O)NC(=O)[C@H](CCCCN)NC(=O)[C@H](Cc2c[nH]cn2)NC(=O)[C@H](C)NC(=O)[C@@H]2CCCN2C(=O)[C@H](Cc2ccccc2)NC(=O)[C@H](C(C)C)NC(=O)[C@H](Cc2ccc(O)cc2)NC(=O)[C@H](CC(N)=O)NC1=O [Loop 1, CNYVFPAHKC] (Ac-CNYVFPAHKC-NH2; disulfide 1-10) |  |  | solubility in water [1]: completely soluble in water; ANTIFUNGAL ACTIVITY, MIC ([2]; Table 8: Loop 1 and Rs-AFP2 15-mer peptides, 1/16 PDB): 2.5 µg/mL; ANTIFUNGAL ACTIVITY, IC50 ([2]; Table 9: Loop 1 and Rs-AFP2 15-mer peptides, 1/16 PDB): 4 µg/mL |
| CC(=O)NCC(=O)N[C@H](C(=O)N[C@@H](Cc1c[nH]c2ccccc12)C(=O)N[C@@H](CO)C(=O)NCC(=O)N[C@H](C(=O)N[C@@H](CS)C(=O)NCC(=O)N[C@@H](CC(N)=O)C(=O)N[C@@H](CC(N)=O)C(=O)N[C@@H](CC(N)=O)C(=O)N[C@@H](C)C(=O)N[C@@H](CS)C(=O)N[C@@H](CCCCN)C(=O)N[C@@H](CC(N)=O)C(N)=O)C(C)C)[C@@H](C)O [Peptide 3 (Rs-AFP2 15-mer)] (Ac-GTWSGVCGNNNACKN-NH2; N-terminus and C-terminus assumed) | 180 |  |  |
| CC[C@H](C)[C@H](NC(=O)[C@H](CS)NC(=O)[C@H](CCC(N)=O)NC(=O)[C@H](CC(N)=O)NC(=O)[C@H](CCCCN)NC(=O)[C@H](CS)NC(=O)[C@H](C)NC(=O)[C@H](CC(N)=O)NC(=O)[C@H](CC(N)=O)NC(=O)[C@H](CC(N)=O)NC(=O)CNC(=O)[C@H](CS)NC(=O)[C@@H](NC(=O)CNC(C)=O)C(C)C)C(=O)N[C@@H](CCCNC(=N)N)C(N)=O [Peptide 4 (Rs-AFP2 15-mer)] (Ac-GVCGNNNACKNQCIR-NH2; N-terminus and C-terminus assumed) | 180 |  |  |
| CC[C@H](C)[C@H](NC(=O)[C@H](CS)NC(=O)[C@H](CCC(N)=O)NC(=O)[C@H](CC(N)=O)NC(=O)[C@H](CCCCN)NC(=O)[C@H](CS)NC(=O)[C@H](C)NC(=O)[C@H](CC(N)=O)NC(=O)[C@H](CC(N)=O)NC(=O)[C@H](CC(N)=O)NC(C)=O)C(=O)N[C@@H](CCCNC(=N)N)C(=O)N[C@@H](CC(C)C)C(=O)N[C@@H](CCC(=O)O)C(=O)N[C@@H](CCCCN)C(=O)N[C@@H](C)C(N)=O [Peptide 5 (Rs-AFP2 15-mer)] (Ac-NNNACKNQCIRLEKA-NH2; N-terminus and C-terminus assumed) | 180 |  |  |
| CC[C@H](C)[C@H](NC(=O)[C@H](CS)NC(=O)[C@H](CCC(N)=O)NC(=O)[C@H](CC(N)=O)NC(=O)[C@H](CCCCN)NC(=O)[C@H](CS)NC(C)=O)C(=O)N[C@@H](CCCNC(=N)N)C(=O)N[C@@H](CC(C)C)C(=O)N[C@@H](CCC(=O)O)C(=O)N[C@@H](CCCCN)C(=O)N[C@@H](C)C(=O)N[C@@H](CCCNC(=N)N)C(=O)N[C@@H](Cc1c[nH]cn1)C(=O)NCC(=O)N[C@@H](CO)C(N)=O [Peptide 6 (Rs-AFP2 15-mer), CKNQCIRLEKARHGS] (Ac-CKNQCIRLEKARHGS-NH2; N-terminus and C-terminus assumed) | 300 | twofold |  |
| CC[C@H](C)[C@H](NC(=O)[C@H](CS)NC(C)=O)C(=O)N[C@@H](CCCNC(=N)N)C(=O)N[C@@H](CC(C)C)C(=O)N[C@@H](CCC(=O)O)C(=O)N[C@@H](CCCCN)C(=O)N[C@@H](C)C(=O)N[C@@H](CCCNC(=N)N)C(=O)N[C@@H](Cc1c[nH]cn1)C(=O)NCC(=O)N[C@@H](CO)C(=O)N[C@@H](CS)C(=O)N[C@@H](CC(N)=O)C(=O)N[C@@H](Cc1ccc(O)cc1)C(=O)N[C@H](C(N)=O)C(C)C [Peptide 7 (Rs-AFP2 15-mer), CIRLEKARHGSCNYV] (Ac-CIRLEKARHGSCNYV-NH2; N-terminus and C-terminus assumed) | 350 | twofold |  |
| CC(=O)N[C@@H](CCC(=O)O)C(=O)N[C@@H](CCCCN)C(=O)N[C@@H](C)C(=O)N[C@@H](CCCNC(=N)N)C(=O)N[C@@H](Cc1c[nH]cn1)C(=O)NCC(=O)N[C@@H](CO)C(=O)N[C@@H](CS)C(=O)N[C@@H](CC(N)=O)C(=O)N[C@@H](Cc1ccc(O)cc1)C(=O)N[C@H](C(=O)N[C@@H](Cc1ccccc1)C(=O)N1CCC[C@H]1C(=O)N[C@@H](C)C(=O)N[C@@H](Cc1c[nH]cn1)C(N)=O)C(C)C [Peptide 8 (Rs-AFP2 15-mer)] | 470 | about 16 fold |  |
| CC[C@H](C)[C@H](NC(=O)[C@H](CS)NC(=O)[C@H](CCCCN)NC(=O)[C@H](Cc1c[nH]cn1)NC(=O)[C@H](C)NC(=O)[C@@H]1CCCN1C(=O)[C@H](Cc1ccccc1)NC(=O)[C@@H](NC(=O)[C@H](Cc1ccc(O)cc1)NC(=O)[C@H](CC(N)=O)NC(=O)[C@H](CS)NC(=O)[C@H](CO)NC(=O)CNC(=O)[C@H](Cc1c[nH]cn1)NC(C)=O)C(C)C)C(=O)N[C@@H](CS)C(N)=O [Peptide 9 (Rs-AFP2 15-mer), HGSCNYVFPAHKCIC] (Ac-HGSCNYVFPAHKCIC-NH2; N-terminus and C-terminus assumed) | 450 | ~8 fold |  |
| CC[C@H](C)[C@H](NC(=O)[C@H](CS)NC(=O)[C@H](CCCCN)NC(=O)[C@H](Cc1c[nH]cn1)NC(=O)[C@H](C)NC(=O)[C@@H]1CCCN1C(=O)[C@H](Cc1ccccc1)NC(=O)[C@@H](NC(=O)[C@H](Cc1ccc(O)cc1)NC(=O)[C@H](CC(N)=O)NC(C)=O)C(C)C)C(=O)N[C@@H](CS)C(=O)N[C@@H](Cc1ccc(O)cc1)C(=O)N[C@@H](Cc1ccccc1)C(=O)N1CCC[C@H]1C(=O)N[C@@H](CS)C(N)=O [Peptide 10 (Rs-AFP2 15-mer)] (Ac-NYVFPAHKCICYFPC-NH2; N-terminus and C-terminus assumed) | 250 |  |  |
| Ac-QRPSGTWSGVCGNNN-NH2 (N-terminus and C-terminus assumed) [Peptide 2 (Rs-AFP2 15-mer)] | 120 |  |  |
